Each block holds one compound with its values, some of them ahead of it.
Assays:
[1] = UV spectrum shift of dilute aqueous SIN 1 solution (about 10 μg/ml) with cyclodextrins, diffuse lighting, room temperature; format: physicochemical; details: for efficiency sequence concluded from the UV spectrum shift: stabilizing effect on SIN 1, ranking in words
Experimental: The solutions were stored at room temperature (20°-22° C.) in diffuse lighting and in certain periods (daily) the UV spectrum of the solutions were registered in the interval between 220-350 nm. As a control only the aqueous solution, and the 0,05N hydrochloric acid solution were used respectively. […] The pH values of the applied cyclodextrin solutions of greatest concentration differed only within ±0.2 unit from the pH value of distilled water.
The decomposition hindering, slow down effect of DIMEB (2,6-di-O-methyl-β-cyclodextrin) is definite too. In the presence of 20 mg/ml DIMEB the spectrum of the solution has shown only a shift within 1 nm after a 6 day storage. We also tested the stabilizing effect of TRIMEB (2,3,6-tri-O-methyl-β-cyclodextrin), of γ-CO, β-CO and of hydroxypropyl-β-CO. The efficiency sequence concluded from the UV spectrum shift was as follows: […]

[2] = Hydrolytic decomposition of SIN 1 to SIN 1C as function of pH (literature / background); format: physicochemical; details: diffused lighting
Experimental: It can be generally said that the sydnonimine derivatives are sensitive to extreme pH values, and are decomposed quickly. […] The process is strictly pH dependent, e.g. to achieve a decomposition of 10% (SIN 1C) 53 sec. at a pH value of 8, 15 hours at a pH of 6, 67 days at a pH of 4, and 13 years at a pH of 1-2 are necessary. (Chem. Pharm. Bull. 19/6 1079, 1971). […] The decomposition can be followed from the UV spectrum directly.

[3] = Change of λ max of SIN 1 with time in phosphate buffers of pH 6.4, 7.0 and 7.6 with and without CDPSI (UV spectrophotometry); format: physicochemical; details: for λ max.: 1 mg/ml SIN 1, +CDPSI 20 mg/ml
[4] = Thin-layer chromatography of SIN 1 decomposition with and without CDPSI; format: physicochemical; details: 1 day of storage
Experimental: In such a concentration range spectrophotometric measurement dose not give a descriptive picture. For this reason the decomposition degree was determined by thin-layer chromatography in the following way: From the solutions 10 μl were dropwise added on a Kieselgel 60 F254 plate (10×10 cm, Merck). Running mixture: cyclohexane:ethyl-acetate in a ratio of 1:1. The running tub was let for 30 minutes to saturation. On the plate also SIN 1C reference solution was dropwise added. On the dropping spot the plate was dried in a cold air flow protected from light and it was let to run up to a […] height. During the running period the running tub was put on a dark place. After evaporation of the solvent the plate was evaluated visually in UV light at 254 nm.

[5] = HPLC decomposition test of SIN 1 in pH 6.3 phosphate buffer, 5 weeks; format: physicochemical; details: room temperature, protected from light, complex in pH 6.3 phosphate buffer with 50 mg/ml CDPSI, control in distilled water
Experimental: (§1) The quantitive measurement of the decomposition degree was carried out by the HPLC method too.
(§2) HPPLC measurement circumstances to the separation of SIN 1-SIN 1 C
(§3) ______________________________________
(§4) Beckman 114 M Solvent Delivery Module,
(§5) 165 Variable Wavelength Detektor, Hewlett-Packard
(§6) Column: Ultrasphere ODS analytical column […],
(§7) Eluent: 0.05 M sodium acetate:
(§8) flowing rate: 1.0 ml/min.
(§9) chart speed: 0.5 cm/min.
(§10) retention times: tR SIN1: 2.9 min.
1. […] Complex was formed with 50 mg/ml (100 fold quantity) of CDPSI. After storage of 5 weeks the HPLC chromatograms were evaluated.

[6] = HPLC decomposition test of SIN 1 in pH 7 phosphate buffer, 4 days; format: physicochemical
Experimental: as §1, §2, §3, §4, §5, §6, §7, §8, §9, §10
2. The test was carried out in a pH 7 phosphate buffer too, choosing similar concentration circumstances.
The chromatograms obtained after 4 days storage were evaluated.

rats = assay: Cardioprotective activity on rats, p.o.; format: in vivo
[7] = test system: potassium depolarized strips; assay: Relaxing effect on potassium depolarized strips
[8] = Membrane permeation test, diffusion of SIN 1 through Visking type cellophane membrane; format: physicochemical; details: SIN 1 alone, 1 mg/ml, 37°±1° C.
Experimental: Visking type cellophane membrane (average pore diameter 24 Angstroms) was used. […] The solutions were stirred by magnetic stirrers and were kept at 37°±1° C. […] The test was repeated in the presence of different cyclodextrins at different concentrations in the donor cell compartment.

[9] = Transformation SIN 1→SIN 1A→SIN 1C in the presence of cyclodextrins in 0.02M acetate buffer pH 5.5 (HPLC); format: physicochemical
Excerpt: (The SIN 1A was detected by HPLC)

[10] = 4 days, 0,5 mg/ml SIN 1, 50 mg/ml CDPSI

shift of the UV spectrum ([1]; 6 day storage, 20 mg/ml DIMEB): ≤ 1 nm | efficiency sequence concluded from the UV spectrum shift [1]: CDPSI>DIMEB>TRIMEB>βCO≥HPβCO
Structure (SMILES): COC[C@H]1O[C@@H]2O[C@H]3[C@H](O)[C@@H](OC)[C@@H](O[C@H]4[C@H](O)[C@@H](OC)[C@@H](O[C@H]5[C@H](O)[C@@H](OC)[C@@H](O[C@H]6[C@H](O)[C@@H](OC)[C@@H](O[C@H]7[C@H](O)[C@@H](OC)[C@@H](O[C@H]8[C@H](O)[C@@H](OC)[C@@H](O[C@H]1[C@H](O)[C@H]2OC)O[C@@H]8COC)O[C@@H]7COC)O[C@@H]6COC)O[C@@H]5COC)O[C@@H]4COC)O[C@@H]3COC [DIMEB, 2,6-di-O-methyl-β-cyclodextrin]

time of decomposition in diluted aqueous solution [2]: 1 to 3 days | time to practically complete transformation into SIN 1C ([1]; aqueous solution without cyclodextrin, stored similarly): 2 to 3 days | decomposition of control solution ([1]; distilled water, 1 week, without CDPSI, in words): practically decomposed | Δλ ([3]; buffer pH 6,4, after 6 days): 12 nm | λ max. ([3]; pH 6.4, 0 days (at preparation)): 291.5 nm | λ max. ([3]; pH 6.4, 1 day): 289.0 nm | λ max. ([3]; pH 6.4, 4 days): 284.9 nm | λ max. ([3]; pH 6.4, 6 days): 279.8 nm | λ max. ([3]; pH 7.0, 0 days (at preparation)): 290.6 nm | λ max. ([3]; pH 7.0, 1 day): 280.4 nm | λ max. ([3]; pH 7.0, 6 days): 277.3 nm | λ max. ([3]; pH 7.6, 0 days (at preparation)): 291.2 nm | λ max. ([3]; pH 7.6, 1 day): 276.4 nm | λ max. ([3]; pH 7.6, 6 days): 277.6 nm | unchanged SIN 1 (TLC) ([4]; pH 7 buffer): still perceptible | unchanged SIN 1 (TLC) ([4]; pH 7.6 buffer): practically no longer detectable | Active ingredient content: SIN 1 [5]: 0,016 | pH value of the solutions after storage ([6]; 4 days): 6.57 | Active ingredient content: SIN 1 [6, 10]: 0.041 mg/mL | Active ingredient content: SIN 1C [6, 10]: 0.125 mg/mL | T 50% (diffusion half life of SIN 1) [8]: 54 min
Structure (SMILES): N=c1c[n+](N2CCOCC2)[n-]o1 [SIN 1, 3-morpholino-sydnonimine]
activity in words (rats; 1 mg/kg): does not exert an activity | cardioprotective activity (rats; 1 mg/kg (complex: same active ingredient)): 11% | T/2 (duration of action) ([7]; 1 or 2 μM): 47 min | T/max (time of maximal relaxation) ([7]; after administration, 1 or 2 μM): 18 min | inhibition at 1 µM ([7]; read-out: maximal relaxation of sustained contraction): 58%

efficiency sequence concluded from the UV spectrum shift [1]: CDPSI>DIMEB>TRIMEB>βCO≥HPβCO
Structure (SMILES): COC[C@H]1O[C@@H]2O[C@H]3[C@H](OC)[C@@H](OC)[C@@H](O[C@H]4[C@H](OC)[C@@H](OC)[C@@H](O[C@H]5[C@H](OC)[C@@H](OC)[C@@H](O[C@H]6[C@H](OC)[C@@H](OC)[C@@H](O[C@H]7[C@H](OC)[C@@H](OC)[C@@H](O[C@H]8[C@H](OC)[C@@H](OC)[C@@H](O[C@H]1[C@H](OC)[C@H]2OC)O[C@@H]8COC)O[C@@H]7COC)O[C@@H]6COC)O[C@@H]5COC)O[C@@H]4COC)O[C@@H]3COC [TRIMEB, 2,3,6-tri-O-methyl-β-cyclodextrin]

efficiency sequence concluded from the UV spectrum shift [1]: CDPSI>DIMEB>TRIMEB>βCO≥HPβCO | SIN 1A found vs control [9]: more than 7 fold
Structure (SMILES): OC[C@H]1O[C@@H]2O[C@H]3[C@H](O)[C@@H](O)[C@@H](O[C@H]4[C@H](O)[C@@H](O)[C@@H](O[C@H]5[C@H](O)[C@@H](O)[C@@H](O[C@H]6[C@H](O)[C@@H](O)[C@@H](O[C@H]7[C@H](O)[C@@H](O)[C@@H](O[C@H]8[C@H](O)[C@@H](O)[C@@H](O[C@H]1[C@H](O)[C@H]2O)O[C@@H]8CO)O[C@@H]7CO)O[C@@H]6CO)O[C@@H]5CO)O[C@@H]4CO)O[C@@H]3CO [βCO, β-cyclodextrin]

From patent US5298496A (Chinoin Gyogyszer- ES Vegyeszeti Termekek Gyara Rt., priority 1990, dated 1994)
